{
  "source": "paper PMC3171408",
  "about": "“Analysis of the BarA/UvrY Two-Component System in Shewanella oneidensis MR-1” (PLoS ONE, 2011)",
  "molecular_target": "T1, BarA(181–929) (Shewanella oneidensis, UniProt Q8EBQ2)",
  "T1 construct": "cytoplasmic region aa 181-929 of 929 aa (full length 103 kDa; two N-terminal TM domains removed), N-terminal 6xHis tag (pBAD-HisA), expressed in E. coli, Ni-NTA purified",
  "T1 sequence (Q8EBQ2 187-935)": "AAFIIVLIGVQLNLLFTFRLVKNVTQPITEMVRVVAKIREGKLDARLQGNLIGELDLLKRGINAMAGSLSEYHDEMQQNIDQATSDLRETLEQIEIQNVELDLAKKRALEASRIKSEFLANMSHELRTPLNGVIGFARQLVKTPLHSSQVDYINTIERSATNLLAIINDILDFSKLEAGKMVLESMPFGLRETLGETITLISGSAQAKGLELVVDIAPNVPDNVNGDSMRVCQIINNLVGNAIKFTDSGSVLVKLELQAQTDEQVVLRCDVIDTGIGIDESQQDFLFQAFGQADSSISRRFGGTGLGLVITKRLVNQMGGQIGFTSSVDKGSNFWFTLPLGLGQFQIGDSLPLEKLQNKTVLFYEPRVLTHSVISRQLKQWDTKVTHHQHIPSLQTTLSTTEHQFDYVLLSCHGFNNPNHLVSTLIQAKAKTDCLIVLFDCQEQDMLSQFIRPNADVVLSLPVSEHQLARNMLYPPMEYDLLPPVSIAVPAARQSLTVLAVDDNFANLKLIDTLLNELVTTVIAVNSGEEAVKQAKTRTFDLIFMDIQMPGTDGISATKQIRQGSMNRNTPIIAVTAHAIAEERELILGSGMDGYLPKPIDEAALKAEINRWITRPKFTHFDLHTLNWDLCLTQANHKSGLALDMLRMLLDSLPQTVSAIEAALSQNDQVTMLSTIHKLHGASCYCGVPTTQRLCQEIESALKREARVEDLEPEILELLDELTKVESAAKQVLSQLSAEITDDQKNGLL",
  "experiment": "autophosphorylation, SDS-PAGE autoradiography",
  "format": "biochemical",
  "settings": "0.5 mM ATP, 10 µM protein, 5 mM MgCl2, 50 mM KCl, pH 8.0, room temperature; labelled compound",
  "data": [
    {"smiles": "Nc1ncnc2c1ncn2[C@@H]1O[C@H](COP(=O)(O)OP(=O)(O)OP(=O)(O)O)[C@@H](O)[C@H]1O", "note": "[[γ-^32P]ATP]", "values": [
      {"measurement": "autophosphorylation, SDS-PAGE autoradiography", "result": "BarA was readily phosphorylated, indicating autophosphorylation activity of the kinase region."}
    ]}
  ]
}
